In patent publication US9193681B1, “Propionic acids, propionic acid esters, and related compounds” (Promentis Pharmaceuticals, Inc., priority 2014, dated 2015):

Key:
[1] = tested on: human glial cells from brain astrocytoma (1321N1); assay: 14C-cystine uptake in human glial cell culture; type: cell-based; details: 100 μM (most effective concentration); relative to untreated control; 1321N1 cells; three hour incubation
Description: The screening of the compound was performed using an in vitro culture system of human glial cells from brain astrocytoma (1321N1). Cells were plated on 24 well plates coated with poly-D-lysine and laminin and grown in a balanced salt solution supplemented with 5% heat inactivated horse serum, 5% fetal bovine serum, 2 mM glutamine and glucose (total 21 mM). Cultures were maintained in humidified 5% CO2 incubators at 37° C. for 3-4 days before experiments were performed, at this time the cultures has formed a single confluent layer. For experiments, cultures are washed 3 times into a Na-free HEPES and HCO3^− buffered balanced salt solution. After 1 hour, the test compounds are added. Following a three hour incubation, ^14C-cystine (0.025 mCi/mL) was then added for 20 minutes. Following the ^14C-cystine exposure, cultures were washed 3 times with ice cold HEPES buffered saline solution and dissolved in 250 μl sodium dodecyl sulfate (0.1%). An aliquot (200 μl) was removed and added to scintillation fluid for counting. Values were normalized to ^14C-cystine uptake in untreated controls on the same experimental plate.

[2] = tested on: mixed cortical cell cultures containing glial and neuronal cells; assay: In vitro thiol experiment: intracellular cysteine levels; type: cell-based, mice; details: 100 μM
Description: Mixed cortical cell cultures containing glial and neuronal cells were prepared from fetal (15-16 day gestation) mice as previously described. Lobner D, Comparison of the LDH and MTT assays for quantifying cell death: validity for neuronal apoptosis?, J Neurosci Methods, 2000, Mar. 15, 96(2), 147-152). Dissociated cortical cells were plated on 24-well plates coated with poly-D-lysine and laminin in Eagles' Minimal Essential Medium (MEM, Earle's salts, supplied glutamine-free) supplemented with 5% heat-inactivated horse serum, 5% fetal bovine serum, 2 mM glutamine and glucose (total 21 mM). Cultures were maintained in humidified 5% CO2 incubators at 37° C. […]
Samples were then sonicated with a Fisher Scientific 60 Sonic Dismembrator. One fraction of this homogenate was analyzed with the Pierce BCA (bicinchoninic acid) method to determine protein concentration. The other fraction was filtered using 3 K molecular weight cutoff, polyethersulfone centrifugal protein filters, and analyzed for thiol content using high-performance liquid chromatography (ALF-115 column, 150×1.0 mm, 3 μm C18; mobile phase: 50 mM citric acid, 10 mM octanesulfonic acid, 2% acetonitrile, pH 2.8, 50 uL/min flow rate) with electrochemical detection (Decade II, Au working electrode, Flex Cell HyREF, 0.55V, Antec Leyden, Netherlands).

[3] = tested on: human glial cells from brain astrocytoma (1321N1); assay: 3H-glutamate release from human glial cell culture; type: cell-based; details: at 3 hours; 100 μM; relative to untreated control; 1321N1 cells
Description: This assay also uses the cell culture system of human glial cells from brain astrocytoma (1321N1) described above. Initially, cells are washed, and ^3H-glutamate is added (PerkinElmer: 1 mCi/mL stock solution is diluted (30 μL+500 μL HBBSS) and 10 μL of diluted radiolabel is added to each well). Following a 1 hour incubation to load the cells with the labeled glutamate, the cells are washed again with HBBSS, and the drug is added. At 30, 90, and 180 minutes, 50 μL of extracellular media is sampled from each well and is measured using a Beckman LS 6500 scintillation counter.

rats [4] = assay: Elevated-plus maze; type: in vivo, rat
Description: Rats were tested in a standard elevated plus maze; testing occurred in a dimly illuminated room using only two lights mounted over the maze. Animals were allowed to habituate to the room for at least one hour prior to treatment. One hour prior to testing, rats received a Pro-4001 (0-30 mg/kg, P.O.). For testing, the rat was placed in the elevated plus maze for five minutes, alternating the starting position between facing an open arm and facing a closed arm. The session was recorded and an observer blind to treatment recorded the number of explorations, entries and time spent in the open arm. Explorations were defined as the rat placing two feet into an open arm without fully entering said arm. Entries were defined as the rat placing all four feet in an open arm. Time of entry in the open arm was recorded from the time the rat placed four feet in the open arm until two of the rats' feet entered the open square.

rats [5] = assay: Prepulse inhibition experiment (MK-801-induced deficit); type: in vivo, rat; details: 3 mg/kg P.O., MK-801 0.1 mg/kg SC, MK-801 plus vehicle control about 18%
Description: Rats were placed on a platform in a sound attenuating chamber (10.875″×14″×19.5″; Hamilton Kinder, Calif.) that rested on a motion sensing plate. During all sessions, the background noise was held constant at 60 dB. A matching session was conducted to determine the magnitude of the average startle response for each rat. This session consisted of a five minute habituation period followed by 20 trials; 17 trials involved the presentation of a single auditory stimulus (pulse stimulus; 50 dB above the background noise) and three trials in which a pre-pulse stimulus (12 db above background) was presented 100 ms before the pulse auditory stimulus. Rats were then assigned into the various treatment groups so that the magnitude of the startle response was equivalent across all groups. Two days later, a testing session was conducted to assess sensorimotor gating. One hour prior to testing, rats received a prodrug (0-100 mg/kg, P.O.) and 55 minutes later acute MK-801 maleate (0.1 mg/kg, SC). […] All startle responses were normalized to vehicle control, and the percent of prepulse inhibition was determined as 100−(average prepulse startle response/average startle stimulus alone)*100.

SMILES: CCOC(=O)[C@H](CSC(=O)[C@@H](N)C(C)C)NC(C)=O.Cl [Pro-4001, ethyl (2R)-3-{[(2S)-2-amino-3-methylbutanoyl]sulfanyl}-2-acetamido-propanoate hydrochloride]
- decrease in 14C-cystine uptake [1]: 50%
- intracellular cysteine concentration [2]: 0.78 µM
- intracellular cysteine concentration, times the control value [2]: approximately 5 times
- increase in 3H-glutamate release [3]: 175%
- increase of time spent on the open arm (rats [4]; 10 mg/kg PO): 50%
- time spent on the open arms (rats [4]; 10 mg/kg PO): around 21 seconds
- increase of time spent on the open arm (rats [4]; 30 mg/kg PO): 64%
- time spent on the open arms (rats [4]; 30 mg/kg PO): around 25 seconds
- % prepulse inhibition (rats [5]): about 27%
